Laboratory results as given in patent US20140315889A1, “HYDROXAMATE DERIVATIVES FOR HDAC INHIBITOR, AND THE PHARMACEUTICAL COMPOSITION COMPRISING THEREOF” (CHONG KUN DANG PHARMACEUTICAL CORP., priority 2011, published 2014).

Key:
Human recombinant HDAC1 = target: T1, Human recombinant HDAC1 (Homo sapiens, UniProt Q13547); experiment: HDAC enzyme activity test, HDAC1; assay type: biochemical; details: Table 12; read-out: Inhibition ability (IC50) HDAC1
T1 construct: purchased Enzo Life Science Co. (named for the kit; assigned to the enzyme from the BML- catalogue prefix) BML-SE456
Protocol: (§1) Then, 0.3 μg of enzyme and 10 μM of substrate per well were added, reacted at 30° C. for 60 minutes. Thereto, Fluor de Lys® Developer II (BML-KI176) was added and reacted for 30 minutes. […] From the data, the respective IC50 were calculated by GraphPad Prism 4.0 program.

human recombinant HDAC6 = target: T2, human recombinant HDAC6 (Homo sapiens, UniProt Q9UBN7); experiment: HDAC enzyme activity test, HDAC6; assay type: biochemical; details: Table 12; for Selectivity for HDAC6, HD1/HD6: ratio HDAC1 IC50 / HDAC6 IC50; for IC50: read-out: Inhibition ability (IC50) HDAC6
T2 construct: purchased Calibiochem Co. (so in the source) 382180
T2 sequence (Q9UBN7 1-1215): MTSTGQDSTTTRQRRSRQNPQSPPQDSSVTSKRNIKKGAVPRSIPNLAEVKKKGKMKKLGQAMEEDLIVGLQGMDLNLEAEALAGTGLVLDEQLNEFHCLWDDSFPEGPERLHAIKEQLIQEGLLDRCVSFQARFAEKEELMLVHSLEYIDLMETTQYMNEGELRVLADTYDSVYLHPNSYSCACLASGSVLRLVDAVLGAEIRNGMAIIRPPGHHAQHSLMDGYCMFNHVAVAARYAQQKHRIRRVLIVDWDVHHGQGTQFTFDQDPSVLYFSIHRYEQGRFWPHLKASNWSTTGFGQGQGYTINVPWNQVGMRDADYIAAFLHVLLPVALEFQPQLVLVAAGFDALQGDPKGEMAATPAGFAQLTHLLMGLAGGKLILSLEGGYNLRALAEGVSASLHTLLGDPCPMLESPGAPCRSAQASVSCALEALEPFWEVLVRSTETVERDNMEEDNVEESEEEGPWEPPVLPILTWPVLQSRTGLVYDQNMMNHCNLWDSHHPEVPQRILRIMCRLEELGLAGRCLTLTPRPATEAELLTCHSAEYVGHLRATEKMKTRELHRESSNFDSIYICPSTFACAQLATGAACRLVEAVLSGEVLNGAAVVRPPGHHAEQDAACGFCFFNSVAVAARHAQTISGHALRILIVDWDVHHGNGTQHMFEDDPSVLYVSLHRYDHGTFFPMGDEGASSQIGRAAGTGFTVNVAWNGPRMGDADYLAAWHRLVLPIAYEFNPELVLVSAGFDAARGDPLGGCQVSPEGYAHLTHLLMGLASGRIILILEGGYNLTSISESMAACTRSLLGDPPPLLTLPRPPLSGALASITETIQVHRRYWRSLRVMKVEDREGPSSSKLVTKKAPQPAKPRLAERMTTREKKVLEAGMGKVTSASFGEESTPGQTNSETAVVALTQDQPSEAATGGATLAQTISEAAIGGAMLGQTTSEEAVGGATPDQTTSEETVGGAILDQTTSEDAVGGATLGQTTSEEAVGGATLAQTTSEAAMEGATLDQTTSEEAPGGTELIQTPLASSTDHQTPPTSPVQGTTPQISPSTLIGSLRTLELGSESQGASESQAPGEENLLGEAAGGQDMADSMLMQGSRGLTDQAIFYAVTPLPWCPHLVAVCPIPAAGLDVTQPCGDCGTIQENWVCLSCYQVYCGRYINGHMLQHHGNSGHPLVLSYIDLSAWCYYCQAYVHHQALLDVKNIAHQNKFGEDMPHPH
Protocol: as §1

T1 sequence (Q13547 whole entry): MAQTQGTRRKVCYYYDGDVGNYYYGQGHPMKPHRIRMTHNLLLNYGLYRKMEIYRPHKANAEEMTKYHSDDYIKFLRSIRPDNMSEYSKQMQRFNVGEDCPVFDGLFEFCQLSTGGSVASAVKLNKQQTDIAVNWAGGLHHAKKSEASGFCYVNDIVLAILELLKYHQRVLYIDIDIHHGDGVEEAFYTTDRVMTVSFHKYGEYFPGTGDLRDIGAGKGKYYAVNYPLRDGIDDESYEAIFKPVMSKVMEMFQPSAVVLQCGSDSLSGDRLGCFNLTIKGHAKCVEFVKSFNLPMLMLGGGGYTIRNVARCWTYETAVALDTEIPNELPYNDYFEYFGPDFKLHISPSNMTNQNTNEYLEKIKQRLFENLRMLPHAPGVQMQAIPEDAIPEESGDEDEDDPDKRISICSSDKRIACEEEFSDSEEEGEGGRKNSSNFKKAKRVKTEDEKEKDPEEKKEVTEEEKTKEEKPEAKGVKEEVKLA

SMILES | IC50 (Human recombinant HDAC1) [nM] | Selectivity for HDAC6, HD1/HD6 (human recombinant HDAC6) | IC50 (human recombinant HDAC6) [nM]
CC(C)(C)OC(=O)N1CCN(CC2CCc3c(c4ccccc4n3Cc3ccc(C(=O)NO)cc3)C2=O)CC1 (stereo not drawn) [Compound 140, tert-butyl 4-((9-(4-(hydroxycarbamoyl)benzyl)-4-oxo-2,3,4,9-tetrahydro-1H-carbazol-3-yl)methyl)piperazine-1-carboxylate] | 5900 | 325.2 | 18.1
CC1(C)CC(=O)c2c(n(CCCCCC(=O)NO)c3c(Cl)cc(Cl)cc23)C1 [Compound 47, 6-(1,3-dichloro-7,7-dimethyl-5-oxo-5,6,7,8-tetrahydrocarbazol-9-yl)-N-hydroxyhexanamide] | 2910 | 6.9 | 421
CC1(C)Cc2c(c3cc(F)ccc3n2Cc2ccc(C(=O)NO)cc2)C(=O)C1CN1CCOCC1 (stereo not drawn) [Compound 207, 4-((6-fluoro-2,2-dimethyl-3-(morpholinomethyl)-4-oxo-1,2,3,4-tetrahydrocarbazol-9-yl)methyl)-N-hydroxybenzamide] | 1820 | 41.5 | 43.9
O=C(NO)c1ccc(Cn2c3c(c4ccccc42)C(=O)C(CN2CC(F)(F)C2)CC3)cc1 (stereo not drawn) [Compound 121, 4-((3-((3,3-difluoroazetidin-1-yl)methyl)-4-oxo-1,2,3,4-tetrahydrocarbazol-9-yl)methyl)-N-hydroxybenzamide] | 3720 | 437.3 | 8.51
O=C(NO)c1ccc(Cn2c3c(c4cc(F)ccc42)C(=O)C(CN2CCOCC2)CC3)cc1 (stereo not drawn) [Compound 141, 4-((6-fluoro-3-(morpholinomethyl)-4-oxo-1,2,3,4-tetrahydrocarbazol-9-yl)methyl)-N-hydroxybenzamide] | 4140 | 850.7 | 4.9
CN1CCN(CC2CCc3c(c4ccccc4n3CCCCCC(=O)NO)C2=O)CC1 (stereo not drawn) [Compound 205, N-hydroxy-6-(3-((4-methylpiperazin-1-yl)methyl)-4-oxo-1,2,3,4-tetrahydrocarbazol-9-yl)hexanamide] | 3170 | 69 | 46
CC(C)(O)CN1CCN(CC2CCc3c(c4cc(F)ccc4n3Cc3ccc(C(=O)NO)cc3)C2=O)CC1 (stereo not drawn) [Compound 191, 4-((6-fluoro-3-((4-(2-hydroxy-2-methylpropyl)piperazin-1-yl)methyl)-4-oxo-1,2,3,4-tetrahydrocarbazol-9-yl)methyl)-N-hydroxybenzamide] | 8280 | 1115.6 | 7.4
Cc1cc2c(n1CCCCCCC(=O)NO)CC(C)(C)CC2=O [Compound 347, N-hydroxy-7-(2,6,6-trimethyl-4-oxo-4,5,6,7-tetrahydroindol-1-yl)heptanamide] | 453 | 16.8 | 27
COCCN1CCN(CC2CCc3c(c4cc(F)ccc4n3Cc3ccc(C(=O)NO)cc3)C2=O)CC1 (stereo not drawn) [Compound 284, 4-((6-fluoro-3-((4-(2-methoxyethyl)piperazin-1-yl)methyl)-4-oxo-1,2,3,4-tetrahydrocarbazol-9-yl)methyl)-N-hydroxybenzamide] | 10700 | 1435.7 | 7.47
O=C(NO)c1ccc(Cn2c3c(c4cc(F)ccc42)C(=O)N(CCN2CCN(CCO)CC2)CC3)cc1 [Compound 288, 4-((8-fluoro-2-(2-(4-(2-hydroxyethyl)piperazin-1-yl)ethyl)-1-oxo-1,2,3,4-tetrahydropyrido[4,3-b]indol-5-yl)methyl)-N-hydroxybenzamide] | 7510 | 708.9 | 10.6
O=C(CCCCCn1c2c(c3cc(F)ccc31)C(=O)C(CN1CCOCC1)CC2)NO (stereo not drawn) [Compound 321, 6-(6-fluoro-3-(morpholinomethyl)-4-oxo-1,2,3,4-tetrahydrocarbazol-9-yl)-N-hydroxyhexanamide] | 13300 | 121.8 | 110
Cc1ccc(N2CCN(CC3CCc4c(c5ccccc5n4Cc4ccc(C(=O)NO)cc4)C3=O)CC2)cc1C (stereo not drawn) [Compound 128, 4-((3-((4-(3,4-dimethylphenyl)piperazin-1-yl)methyl)-4-oxo-1,2,3,4-tetrahydrocarbazol-9-yl)methyl)-N-hydroxybenzamide] | 8140 | 198.6 | 41
Cc1c2c(n(Cc3ccc(C(=O)NO)cc3)c1C)CCCC2=O [Compound 220, 4-((2,3-dimethyl-4-oxo-4,5,6,7-tetrahydroindol-1-yl)methyl)-N-hydroxybenzamide] | 2820 | 643.1 | 4.39
O=C(NO)c1ccc(Cn2c3ccccc3c3c(=O)[nH]cnc32)cc1 [Compound 179, N-hydroxy-4-((4-oxo-3,4-dihydropyrimido[4,5-b]indol-9-yl)methyl)benzamide] | 154 | 43.693 | 3.52
CC1(C)CCc2c(c3ccccc3n2Cc2ccc(C(=O)NO)cc2)C1=O [Compound 131, 4-((3,3-dimethyl-4-oxo-1,2,3,4-tetrahydrocarbazol-9-yl)methyl)-N-hydroxybenzamide] | 2690 | 296.6 | 9.1
COC[C@@H]1CCCN1CCN1CCc2c(c3cc(F)ccc3n2Cc2ccc(C(=O)NO)cc2)C1=O [Compound 285, (S)-4-((8-fluoro-2-(2-(2-(methoxymethyl)pyrrolidin-1-yl)ethyl)-1-oxo-1,2,3,4-tetrahydropyrido[4,3-b]indol-5-yl)methyl)-N-hydroxybenzamide] | 13200 | 588.2 | 22.5
CC(C)N1CCN(CC2CCc3c(c4ccccc4n3Cc3ccc(C(=O)NO)cc3)C2=O)CC1 (stereo not drawn) [Compound 113, N-hydroxy-4-((3-((4-isopropylpiperazin-1-yl)methyl)-4-oxo-1,2,3,4-tetrahydrocarbazol-9-yl)methyl)benzamide] | 2440 | 287.1 | 8.5
O=C(NO)c1ccc(Cn2c3c(c4cc(F)ccc42)C(=O)N(CCN2CCC[C@@H]2CO)CC3)cc1 [Compound 289, (R)-4-((8-fluoro-2-(2-(2-(hydroxymethyl)pyrrolidin-1-yl)ethyl)-1-oxo-1,2,3,4-tetrahydropyrido[4,3-b]indol-5-yl)methyl)-N-hydroxybenzamide] | 7980 | 691.2 | 11.5
Cc1cn(Cc2ccc(C(=O)NO)cc2)c2c1C(=O)N(CCN1CCOCC1)CC2 [Compound 250, N-hydroxy-4-((3-methyl-5-(2-morpholinoethyl)-4-oxo-4,5,6,7-tetrahydropyrrolo[3,2-c]pyridin-1-yl)methyl)benzamide] | 2720 | 20.5 | 133
CC1(C)CC(=O)c2c(n(Cc3ccc(C(=O)NO)cc3)c3cccc(Br)c23)C1 [Compound 53, 4-((5-bromo-2,2-dimethyl-4-oxo-1,2,3,4-tetrahydrocarbazol-9-yl)methyl)-N-hydroxybenzamide] | 5760 | 88.7 | 64.9
